Source: the supplement of paper PMC10627819

Experiments:
S. aureus Newman [1] = assay: fitness (endpoint OD595 vs no drug) (fraction); higher = more growth
Procedure, shortened: (§1)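 Fitness is computed from the optical density at which cultures reach stationary phase, divided by the robust mean of no-drug control wells. Any value above 1 is set to 1. Cultures started at OD595 0.01 in 384-well plates with TSB, LB Lennox or CY at 37 °C, and OD595 was read every 30 min for 14 h against a first-reading background.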

B. subtilis 168 [2] = assay: as above
Procedure, shortened: as §1

S. pneumoniae D39V [3] = assay: as above
Procedure, shortened: as §1

S. aureus Newman [4] = assay: Bliss interaction score (quartile over a dose matrix) (fitness difference); higher = more antagonism (negative = synergy)
Procedure, shortened: (§2)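 Growth was read as OD595 when cultures entered stationary phase, and each value was divided by the plate's robust no-drug mean and capped at 1. This normalised ratio is the fitness value, and fitness for each single drug came from the combination data. The Bliss score subtracts the expected fitness, taken as the product, from the observed fitness and is given as quartiles across technical, biological and donor/recipient replicates.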

S. aureus DSM 20231 = assay: as above
Procedure, shortened: as §2

B. subtilis 168 [5] = assay: as above
Procedure, shortened: as §2

S. pneumoniae D39V [6] = assay: as above
Procedure, shortened: as §2

[7] = first compound 0.625 µg/mL, partner 2 µg/mL
[8] = first compound 0.625 µg/mL, partner 4 µg/mL
[9] = first compound 1.25 µg/mL, partner 1 µg/mL
[10] = first compound 1.25 µg/mL, partner 2 µg/mL
[11] = first compound 1.25 µg/mL, partner 4 µg/mL
[12] = first compound 2.5 µg/mL, partner 1 µg/mL
[13] = first compound 2.5 µg/mL, partner 2 µg/mL
[14] = first compound 2.5 µg/mL, partner 4 µg/mL
[15] = first compound 1.25 µg/mL, partner 8 µg/mL
[16] = first compound 2.5 µg/mL, partner 8 µg/mL
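For Bliss interaction score (quartile over a dose matrix) in this document: first quartile when negative (synergy) and third quartile when positive (antagonism).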
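For fitness (endpoint OD595 vs no drug) in this document: OD595 on entry to stationary phase over no-drug wells; at most 1.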

Cc1ncc([N+](=O)[O-])n1CCO [Metronidazole] + CN[C@@H]1[C@H](O[C@H]2[C@H](O[C@H]3[C@H](O)[C@@H](O)[C@H](N=C(N)N)[C@@H](O)[C@@H]3N=C(N)N)O[C@@H](C)[C@]2(O)C=O)O[C@@H](CO)[C@H](O)[C@H]1O [Streptomycin]
fitness (S. aureus Newman [1]; first compound 0.625 µg/mL, partner 1 µg/mL): 0.91 | fitness (S. aureus Newman [1]; [7]): 0.956 | fitness (S. aureus Newman [1]; [8]): 0.909 | fitness (S. aureus Newman [1]; first compound 0.781 µg/mL, partner 1 µg/mL): 0.966 | fitness (S. aureus Newman [1]; first compound 0.781 µg/mL, partner 2 µg/mL): 0.899 | fitness (S. aureus Newman [1]; [9]): 0.986 | fitness (S. aureus Newman [1]; [10]): 0.967 | fitness (S. aureus Newman [1]; [11]): 0.935 | fitness (S. aureus Newman [1]; first compound 1.562 µg/mL, partner 1 µg/mL): ≥ 1 | fitness (S. aureus Newman [1]; first compound 1.562 µg/mL, partner 2 µg/mL): 0.917 | fitness (S. aureus Newman [1]; [12]): 0.928 | fitness (S. aureus Newman [1]; [13]): 0.938 | fitness (S. aureus Newman [1]; [14]): 0.889 | fitness (S. aureus Newman [1]; first compound 3.124 µg/mL, partner 1 µg/mL): 0.982 | fitness (S. aureus Newman [1]; first compound 3.124 µg/mL, partner 2 µg/mL): 0.926 | fitness (B. subtilis 168 [2]; [7]): 0.996 | fitness (B. subtilis 168 [2]; [8]): 0.657 | fitness (B. subtilis 168 [2]; first compound 0.625 µg/mL, partner 8 µg/mL): 0.0295 | fitness (B. subtilis 168 [2]; [10]): 0.997 | fitness (B. subtilis 168 [2]; [11]): 0.633 | fitness (B. subtilis 168 [2]; [15]): 0.0395 | fitness (B. subtilis 168 [2]; [13]): 0.995 | fitness (B. subtilis 168 [2]; [14]): 0.636 | fitness (B. subtilis 168 [2]; [16]): 0.0352 | fitness (S. pneumoniae D39V [3]; first compound 1.073 µg/mL, partner 2 µg/mL): 0.903 | fitness (S. pneumoniae D39V [3]; first compound 1.073 µg/mL, partner 4 µg/mL): 0.992 | fitness (S. pneumoniae D39V [3]; first compound 1.073 µg/mL, partner 8 µg/mL): 0.945 | fitness (S. pneumoniae D39V [3]; first compound 1.25 µg/mL, partner 2 µg/mL, one replicate): ≥ 1 | fitness (S. pneumoniae D39V [3]; [11]): 0.992 | fitness (S. pneumoniae D39V [3]; [15]): 0.891 | fitness (S. pneumoniae D39V [3]; first compound 1.25 µg/mL, partner 16 µg/mL, one replicate): 0.815 | fitness (S. pneumoniae D39V [3]; first compound 2.145 µg/mL, partner 2 µg/mL): 0.935 | fitness (S. pneumoniae D39V [3]; first compound 2.145 µg/mL, partner 4 µg/mL): 0.977 | fitness (S. pneumoniae D39V [3]; first compound 2.145 µg/mL, partner 8 µg/mL): 0.932 | fitness (S. pneumoniae D39V [3]; first compound 2.5 µg/mL, partner 2 µg/mL, one replicate): ≥ 1 | fitness (S. pneumoniae D39V [3]; [14]): 0.998 | fitness (S. pneumoniae D39V [3]; [16]): 0.893 | fitness (S. pneumoniae D39V [3]; first compound 2.5 µg/mL, partner 16 µg/mL, one replicate): 0.787 | fitness (S. pneumoniae D39V [3]; first compound 4.29 µg/mL, partner 2 µg/mL): 0.871 | fitness (S. pneumoniae D39V [3]; first compound 4.29 µg/mL, partner 4 µg/mL): 0.905 | fitness (S. pneumoniae D39V [3]; first compound 4.29 µg/mL, partner 8 µg/mL): 0.945 | fitness (S. pneumoniae D39V [3]; first compound 5 µg/mL, partner 2 µg/mL, one replicate): 0.987 | fitness (S. pneumoniae D39V [3]; first compound 5 µg/mL, partner 4 µg/mL): 0.981 | fitness (S. pneumoniae D39V [3]; first compound 5 µg/mL, partner 8 µg/mL): 0.907 | fitness (S. pneumoniae D39V [3]; first compound 5 µg/mL, partner 16 µg/mL, one replicate): 0.818 | Bliss interaction score (S. aureus Newman [4]): 0.0764 | Bliss interaction score (S. aureus DSM 20231): 0.0693 | Bliss interaction score (B. subtilis 168 [5]): 0.0729 | Bliss interaction score (S. pneumoniae D39V [6]): 0.0448

CO/N=C(\C(=O)N[C@@H]1C(=O)N2C(C(=O)O)=C(COC(C)=O)CS[C@H]12)c1csc(N)n1 [Cefotaxime] + CC1=C(C(=O)O)N2C(=O)[C@@H](NC(=O)[C@H](N)c3ccccc3)[C@H]2SC1 [Cephalexin]
fitness (S. aureus Newman [1]; first compound 0.039 µg/mL, partner 0.25 µg/mL, one replicate): 0.904 | fitness (S. aureus Newman [1]; first compound 0.039 µg/mL, partner 0.5 µg/mL, one replicate): 0.952 | fitness (S. aureus Newman [1]; first compound 0.039 µg/mL, partner 1 µg/mL, one replicate): ≥ 1 | fitness (S. aureus Newman [1]; first compound 0.078 µg/mL, partner 0.25 µg/mL): 0.751 | fitness (S. aureus Newman [1]; first compound 0.078 µg/mL, partner 0.5 µg/mL): 0.797 | fitness (S. aureus Newman [1]; first compound 0.078 µg/mL, partner 1 µg/mL): 0.817 | fitness (S. aureus Newman [1]; first compound 0.156 µg/mL, partner 0.25 µg/mL): 0.636 | fitness (S. aureus Newman [1]; first compound 0.156 µg/mL, partner 0.5 µg/mL): 0.631 | fitness (S. aureus Newman [1]; first compound 0.156 µg/mL, partner 1 µg/mL): 0.713 | fitness (S. aureus Newman [1]; first compound 0.312 µg/mL, partner 0.25 µg/mL, one replicate): 0.402 | fitness (S. aureus Newman [1]; first compound 0.312 µg/mL, partner 0.5 µg/mL, one replicate): 0.38 | fitness (S. aureus Newman [1]; first compound 0.312 µg/mL, partner 1 µg/mL, one replicate): 0.371 | fitness (S. aureus Newman [1]; first compound 0.625 µg/mL, partner 0.5 µg/mL): 0.248 | fitness (S. aureus Newman [1]; first compound 1.25 µg/mL, partner 0.25 µg/mL): 0.159 | fitness (S. aureus Newman [1]; first compound 1.25 µg/mL, partner 0.5 µg/mL): 0.111 | fitness (S. aureus Newman [1]; [9]): 0.0956 | fitness (S. aureus Newman [1]; first compound 2.5 µg/mL, partner 0.25 µg/mL): 0.0395 | fitness (S. aureus Newman [1]; first compound 2.5 µg/mL, partner 0.5 µg/mL): 0.0255 | fitness (S. aureus Newman [1]; [12]): 0.0566 | fitness (B. subtilis 168 [2]; first compound 0.00775 µg/mL, partner 0.25 µg/mL, one replicate): 0.868 | fitness (B. subtilis 168 [2]; first compound 0.00775 µg/mL, partner 0.5 µg/mL, one replicate): 0.903 | fitness (B. subtilis 168 [2]; first compound 0.00775 µg/mL, partner 1 µg/mL, one replicate): 0.851 | fitness (B. subtilis 168 [2]; first compound 0.0155 µg/mL, partner 0.25 µg/mL, one replicate): 0.729 | fitness (B. subtilis 168 [2]; first compound 0.0155 µg/mL, partner 0.5 µg/mL, one replicate): 0.728 | fitness (B. subtilis 168 [2]; first compound 0.0155 µg/mL, partner 1 µg/mL, one replicate): 0.748 | fitness (B. subtilis 168 [2]; first compound 0.031 µg/mL, partner 0.25 µg/mL, one replicate): 0.62 | fitness (B. subtilis 168 [2]; first compound 0.031 µg/mL, partner 0.5 µg/mL, one replicate): 0.631 | fitness (B. subtilis 168 [2]; first compound 0.031 µg/mL, partner 1 µg/mL, one replicate): 0.615 | fitness (B. subtilis 168 [2]; first compound 0.5 µg/mL, partner 0.125 µg/mL): 0.235 | fitness (B. subtilis 168 [2]; first compound 0.5 µg/mL, partner 0.25 µg/mL): 0.221 | fitness (B. subtilis 168 [2]; first compound 0.5 µg/mL, partner 0.5 µg/mL): 0.248 | fitness (B. subtilis 168 [2]; first compound 1 µg/mL, partner 0.125 µg/mL): 0.152 | fitness (B. subtilis 168 [2]; first compound 1 µg/mL, partner 0.25 µg/mL): 0.123 | fitness (B. subtilis 168 [2]; first compound 1 µg/mL, partner 0.5 µg/mL): 0.148 | fitness (B. subtilis 168 [2]; first compound 2 µg/mL, partner 0.125 µg/mL): 0.124 | fitness (B. subtilis 168 [2]; first compound 2 µg/mL, partner 0.25 µg/mL): 0.125 | fitness (B. subtilis 168 [2]; first compound 2 µg/mL, partner 0.5 µg/mL): 0.0819 | fitness (S. pneumoniae D39V [3]; first compound 0.0018 µg/mL, partner 0.125 µg/mL, one replicate): ≥ 1 | fitness (S. pneumoniae D39V [3]; first compound 0.0018 µg/mL, partner 0.25 µg/mL, one replicate): 0.959 | fitness (S. pneumoniae D39V [3]; first compound 0.0018 µg/mL, partner 0.5 µg/mL, one replicate): 1 | fitness (S. pneumoniae D39V [3]; first compound 0.0018 µg/mL, partner 1 µg/mL): 0.815 | fitness (S. pneumoniae D39V [3]; first compound 0.0018 µg/mL, partner 2 µg/mL): 0.242 | fitness (S. pneumoniae D39V [3]; first compound 0.0018 µg/mL, partner 4 µg/mL): 0.0372 | fitness (S. pneumoniae D39V [3]; first compound 0.0035 µg/mL, partner 0.125 µg/mL, one replicate): 0.953 | fitness (S. pneumoniae D39V [3]; first compound 0.0035 µg/mL, partner 0.25 µg/mL, one replicate): 0.967 | fitness (S. pneumoniae D39V [3]; first compound 0.0035 µg/mL, partner 0.5 µg/mL, one replicate): 0.977 | fitness (S. pneumoniae D39V [3]; first compound 0.0035 µg/mL, partner 1 µg/mL): 0.679 | fitness (S. pneumoniae D39V [3]; first compound 0.0035 µg/mL, partner 2 µg/mL): 0.168 | fitness (S. pneumoniae D39V [3]; first compound 0.0035 µg/mL, partner 4 µg/mL): 0.0436 | fitness (S. pneumoniae D39V [3]; first compound 0.007 µg/mL, partner 0.125 µg/mL, one replicate): 0.777 | fitness (S. pneumoniae D39V [3]; first compound 0.007 µg/mL, partner 0.25 µg/mL, one replicate): 0.875 | fitness (S. pneumoniae D39V [3]; first compound 0.007 µg/mL, partner 0.5 µg/mL, one replicate): 0.724 | fitness (S. pneumoniae D39V [3]; first compound 0.007 µg/mL, partner 2 µg/mL): 0.0426 | fitness (S. pneumoniae D39V [3]; first compound 0.007 µg/mL, partner 4 µg/mL): 0.0416 | Bliss interaction score (S. aureus Newman [4]): 0.09 | Bliss interaction score (S. aureus DSM 20231): 0.0629 | Bliss interaction score (B. subtilis 168 [5]): 0.101 | Bliss interaction score (S. pneumoniae D39V [6]): -0.0656
